Patent US9376432B2, “Use of VEGFR-3 inhibitors for treating hepatocellular carcinoma” (Sanofi, priority 2012, dated 2016)
pIC50: −log10 of the molar value.

Legend:
[1] = target: VEGFR-3 (Homo sapiens, UniProt P35916); settings: disclosed in the '145 application; read-out: IC50, inhibition of recombinant VEGFR-3 TK activity and autophosphorylation in HEK cells; cited from earlier work
[2] = target: VEGFR-1 (Homo sapiens, UniProt P17948); settings: same assays as VEGFR-3; disclosed in the '145 application; cited from earlier work
[3] = system: 85 different kinases and 107 receptors, enzymes and ion channels; experiment: selectivity versus other kinases, receptors, enzymes and ion channels
[4] = system: HepG2 cell line orthotopic xenograft; experiment: HepG2 cell line orthotopic xenograft model (murine hepatocarcinoma xenograft); format: in vivo, SCID mice; settings: 100 mg/kg once a day
Experimental: The in vivo anti-tumor efficacy of the compound of Example 1 in HepG2 cell line orthotopic xenograft model was evaluated. The HepG2 cells were injected into liver of SCID mice (obtained from ATCC) and mice were randomized into 2 groups 14 days post cell injection: a control group treated with vehicle and the compound of Example 1-treated group. Treatment was performed once a day at 100 mg/kg in methyl cellulose tween as vehicle.
The tumor size was measured by weighting the left lobe with the tumor at day 28. […] Normal liver lobe was also measured and deduced from the lobe of tumor bearing mice. […] (See FIG. 1).

[5] = system: DEN-induced hepatocarcinoma; experiment: DEN chemical-induced hepatocarcinoma in mice; format: in vivo, male C3H mice
Experimental: DEN (N-diethynitrosamine)-induced mouse model has been validated as a representative model for human HCC Wu et al. J. Cancer Res. Clin. Oncol. (2009) 135. 969-981; Chuang et al. Carcinogenesis (2000) 21; 331-335).
Tumor initiation was achieved by a single intra peritoneal injection of 10 mg/kg of N-diethylnitrosamine (DEN) in male C3H mice (Charles river laboratories France) at the age of 5 weeks.
Mice developed tumors in the liver from the 7th month post DEN administration but the incidence reached 100% at the 12th month. The compound of Example 1 was daily administrated P.O. (orally) after suspension in methyl cellulose tween, between the 10th and 12th month after DEN administration.
The body weight was evaluated each week during treatment and on the 12th months. Mice were killed by overdose of sodium pentobarbital, and livers were removed and weighted. The number of tumors per liver was counted and the tumor volume was measured with calipers. The tumor volume V was calculated using formula V=0.52×a^2×b, where “a” represents the smallest tumor diameter and “b” the largest tumor diameter.

[6] = system: primary lymphatic cells; experiment: VEGFC- and VEGFD-induced proliferation of primary lymphatic cells; format: cell-based; settings: read-out: IC50, inhibition of VEGFC- and VEGFD-induced proliferation
[7] = system: hepatocellular carcinoma; settings: HCC patients; literature; cited from earlier work
[8] = daily P.O. between 10th and 12th month after DEN, vs vehicle group
[9] = late treatment, 10th to 12th month after DEN, compared to same parameters at the 10th month

Chain of VEGFR-3 (P35916 25-1363): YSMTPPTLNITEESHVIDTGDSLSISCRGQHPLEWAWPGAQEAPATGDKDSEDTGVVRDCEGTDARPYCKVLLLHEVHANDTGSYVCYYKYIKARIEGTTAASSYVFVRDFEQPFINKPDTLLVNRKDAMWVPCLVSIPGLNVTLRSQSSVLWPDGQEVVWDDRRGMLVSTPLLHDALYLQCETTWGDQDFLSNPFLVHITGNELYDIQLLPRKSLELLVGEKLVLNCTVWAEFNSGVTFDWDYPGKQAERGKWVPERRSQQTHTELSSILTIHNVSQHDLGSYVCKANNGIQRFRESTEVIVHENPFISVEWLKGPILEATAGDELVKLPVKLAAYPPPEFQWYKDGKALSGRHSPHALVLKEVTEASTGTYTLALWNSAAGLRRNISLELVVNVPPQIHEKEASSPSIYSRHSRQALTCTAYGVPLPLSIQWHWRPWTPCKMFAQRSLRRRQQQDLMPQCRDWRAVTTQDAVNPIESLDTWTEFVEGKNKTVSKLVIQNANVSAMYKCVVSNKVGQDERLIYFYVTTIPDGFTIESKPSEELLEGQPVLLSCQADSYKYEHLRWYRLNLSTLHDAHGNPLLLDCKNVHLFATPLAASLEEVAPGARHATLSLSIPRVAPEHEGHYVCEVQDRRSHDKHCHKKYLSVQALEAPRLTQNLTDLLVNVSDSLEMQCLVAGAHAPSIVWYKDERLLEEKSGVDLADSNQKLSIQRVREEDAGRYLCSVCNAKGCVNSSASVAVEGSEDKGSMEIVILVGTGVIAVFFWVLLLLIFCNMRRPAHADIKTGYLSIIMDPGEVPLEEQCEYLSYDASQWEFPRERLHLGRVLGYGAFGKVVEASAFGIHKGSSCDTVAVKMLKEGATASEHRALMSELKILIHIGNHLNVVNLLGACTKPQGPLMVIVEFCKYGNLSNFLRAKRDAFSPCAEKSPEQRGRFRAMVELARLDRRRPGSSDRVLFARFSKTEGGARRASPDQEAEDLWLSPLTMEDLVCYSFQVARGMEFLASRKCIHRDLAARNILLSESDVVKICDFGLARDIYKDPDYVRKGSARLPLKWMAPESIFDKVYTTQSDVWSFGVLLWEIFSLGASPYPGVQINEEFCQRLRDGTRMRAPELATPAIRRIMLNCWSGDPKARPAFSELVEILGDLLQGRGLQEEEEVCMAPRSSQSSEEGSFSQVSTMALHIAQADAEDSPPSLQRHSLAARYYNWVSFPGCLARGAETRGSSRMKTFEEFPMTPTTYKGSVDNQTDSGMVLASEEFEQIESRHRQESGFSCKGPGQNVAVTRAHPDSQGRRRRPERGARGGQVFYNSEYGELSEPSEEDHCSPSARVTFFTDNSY
Chain of VEGFR-1 (P17948 27-1338): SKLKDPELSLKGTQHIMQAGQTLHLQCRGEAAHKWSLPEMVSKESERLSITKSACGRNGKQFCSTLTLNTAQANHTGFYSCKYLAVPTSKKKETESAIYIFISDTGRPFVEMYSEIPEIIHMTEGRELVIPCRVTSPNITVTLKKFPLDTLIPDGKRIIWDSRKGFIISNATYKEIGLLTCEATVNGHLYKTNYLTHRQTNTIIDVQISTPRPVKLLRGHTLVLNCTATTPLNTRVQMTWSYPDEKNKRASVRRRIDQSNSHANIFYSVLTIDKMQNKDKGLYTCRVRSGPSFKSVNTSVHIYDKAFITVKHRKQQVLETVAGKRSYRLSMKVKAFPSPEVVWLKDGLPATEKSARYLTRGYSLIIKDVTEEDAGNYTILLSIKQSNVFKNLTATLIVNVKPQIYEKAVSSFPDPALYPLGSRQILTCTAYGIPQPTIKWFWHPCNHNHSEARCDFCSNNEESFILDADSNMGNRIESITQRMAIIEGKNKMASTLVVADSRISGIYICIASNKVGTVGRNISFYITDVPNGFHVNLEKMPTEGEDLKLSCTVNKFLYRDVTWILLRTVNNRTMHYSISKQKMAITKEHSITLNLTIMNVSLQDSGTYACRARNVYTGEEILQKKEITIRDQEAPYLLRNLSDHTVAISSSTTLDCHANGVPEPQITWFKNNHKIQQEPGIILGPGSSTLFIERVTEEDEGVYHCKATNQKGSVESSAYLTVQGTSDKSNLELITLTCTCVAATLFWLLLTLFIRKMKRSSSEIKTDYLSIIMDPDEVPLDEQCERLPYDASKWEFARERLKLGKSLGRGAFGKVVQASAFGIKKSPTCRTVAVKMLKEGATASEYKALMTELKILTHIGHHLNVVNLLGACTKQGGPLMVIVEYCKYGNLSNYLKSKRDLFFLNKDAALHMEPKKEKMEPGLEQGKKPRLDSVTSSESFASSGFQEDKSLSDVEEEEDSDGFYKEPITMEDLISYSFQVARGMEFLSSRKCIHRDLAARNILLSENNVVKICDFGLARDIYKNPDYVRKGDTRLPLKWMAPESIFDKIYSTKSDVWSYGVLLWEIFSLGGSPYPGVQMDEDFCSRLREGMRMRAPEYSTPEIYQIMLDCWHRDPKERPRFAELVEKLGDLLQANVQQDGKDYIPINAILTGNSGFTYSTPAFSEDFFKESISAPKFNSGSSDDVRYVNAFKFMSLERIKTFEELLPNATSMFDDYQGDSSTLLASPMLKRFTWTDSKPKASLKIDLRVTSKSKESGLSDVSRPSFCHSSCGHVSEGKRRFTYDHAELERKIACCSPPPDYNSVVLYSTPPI

In the case of `CCn1c(N)c(-c2ncc[nH]2)c(=O)c2ccc(C#C[C@@](C)(O)COC)nc21` [Example 1, 2-Amino-1-ethyl-7-((3R)-3-hydroxy-4-methoxy-3-methyl-but-1-ynyl)-3-(1H-imidazol-2-yl)-1H-[1,8]-naphthyridin-4-one], the pIC50 [1] is listed as ~7.60, the pIC50 [2] is listed as < 6.00 and the “selectivity for VEGFR-3 compared to other tested kinases, receptors, enzymes and ion channels” value [3] is listed as “highly selective for VEGFR-3”. For the same compound, the “decrease of mean weight of the liver lobe bearing the tumor” value ([4]; from 14 days post cell injection, Day 28 post cell injection, vs vehicle, p=0.001) was 34%, the “reduction of tumor weight (normal liver lobe weight deduced)” value ([4]; Day 28, normal liver lobe deduced from lobe of tumor bearing mice) was 62% and the total liver weight ([5]; daily P.O. between 10th and 12th month after DEN) was “reduced and almost normalized”. The “reduction of number of tumors/liver” value [5, 8] was 50%, the “reduction of total tumor volume” value [5, 8] was 85% and the “formation of new loci compared to the 10th month” value [5, 9] was “prevented the formation of new loci”. The “tumor development compared to the 10th month” value [5, 9] was “completely blocked tumor development” and the pIC50 [6] was 7.82 to 8.00.
For `CCn1c(N)c(-c2ncc[nH]2)c(=O)c2ccc(C#C[C@@](C)(O)CO)nc21` [Example 2, 2-Amino-7-((3R)3,4-dihydroxy-3-methyl-but-1-ynyl)-1-ethyl-3-(1H-imidazol-2-yl)-1,8-naphthyridin-4(1H)-one], the pIC50 [1] is listed as ~7.33.
For `CNC(=O)c1cc(Oc2ccc(NC(=O)Nc3ccc(Cl)c(C(F)(F)F)c3)cc2)ccn1` [Sorafenib], the “OS (overall survival) gain over placebo” value [7] is given as 2-3 months.
